In general, Ki refers to the equilibrium dissociation constant of an inhibitor or competing ligand from its target.

This is an account of results in publication PMC3495162 (Journal of medicinal chemistry, 2012).

The test system of one data set is H146 cell line. Description: Cell death assay. As to conditions: for Concentration with a similar effect (>50% of H146 cells undergoing cell death): 24 hr treatment, trypan blue; for Potency in induction of cell death relative to 1 and 2: H146, 24 hr. Format: cell-based.
Data set [1] has as its system multiple xenograft tumor models. As to conditions: cited from earlier work.
Another data set deals with H146 cancer cells. Description: Western blot of PARP and caspase-3 cleavage in cells. Format: cell-based. As to conditions: 24 hr. On the technique in general: A western blot detects proteins with antibodies after separation by electrophoresis.
For data set [2], the system named is chronic lymphocytic leukemia. As to conditions: Phase I/II clinical trials; cited from earlier work.
The next data set concerns small cell lung cancer. As to conditions: Phase I/II clinical trials; cited from earlier work.
Data set [3] relates to H146 xenograft tumor model. As to conditions: well-tolerated dose-schedule, mice; cited from earlier work.
The target in data set [4] is T1, Bcl-2 (Homo sapiens, UniProt P10415). As to conditions: read-out: Bcl-2 Ki; cited from earlier work.
Data set [5] concerns the target T2, Bcl-xL (Homo sapiens, UniProt Q07817). As to conditions: read-out: Bcl-xL Ki; cited from earlier work.
The target in the next data set is Mcl-1 (Homo sapiens, UniProt Q07820). Put plainly: Fluorescence polarization competitive binding assay, Mcl-1. As to conditions: at concentrations as high as 5 μM.
In another data set the test system is H146 xenograft tumors. Description: Pharmacodynamics: PARP and caspase-3 cleavage in xenograft tumor tissue. Type of data set: in vivo, SCID mice. As to conditions: single i.v. dose, 28 at 50 mg/kg or 30 at 25 mg/kg; 3- and 6-h time-points.
Data set [6] has as its system H146 xenograft tumor model. Description: Antitumor efficacy in H146 xenograft tumor model. As to conditions: for Antitumor activity in H146 xenograft tumor model / Weight loss in tumor-bearing animals compared to the vehicle control: 28 at 50 mg/kg, 30 at 25 mg/kg, i.v., daily, 5 days a week for two weeks. Type of data set: in vivo, SCID mice.
Data set [7] can be described thus: Maximum tolerated dose determination. As to conditions: 75 mg/kg for 28, 50 mg/kg for 30, 25 mg/kg for 31.
The target in data set [8] is T2, Bcl-xL. Description: Fluorescence polarization competitive binding assay, Bcl-xL.
Data set [9] addresses T1, Bcl-2. Description: Fluorescence polarization competitive binding assay, Bcl-2.
Data set [10] concerns H1417 small-cell lung cancer cell line. Description: Cell growth inhibition assay, H1417. Format: cell-based. As to conditions: relative to compounds 30 and 31.
Data set [11] has as its system H146 small-cell lung cancer cell line. Put plainly: Cell growth inhibition assay, H146. As to conditions: relative to compounds 30 and 31. Format: cell-based.

Molecules are shown by their SMILES. Entries after “also recorded” stand apart in the source; their conditions may differ. Where two headings read alike, the source gives them in different places.

T2 sequence (Q07817 whole entry): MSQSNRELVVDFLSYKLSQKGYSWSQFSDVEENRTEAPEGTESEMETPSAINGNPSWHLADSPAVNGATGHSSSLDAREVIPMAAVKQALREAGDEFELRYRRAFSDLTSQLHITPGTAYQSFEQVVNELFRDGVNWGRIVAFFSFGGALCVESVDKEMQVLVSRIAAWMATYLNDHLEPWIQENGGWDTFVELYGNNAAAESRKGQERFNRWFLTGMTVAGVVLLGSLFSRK
T1 sequence (P10415 whole entry): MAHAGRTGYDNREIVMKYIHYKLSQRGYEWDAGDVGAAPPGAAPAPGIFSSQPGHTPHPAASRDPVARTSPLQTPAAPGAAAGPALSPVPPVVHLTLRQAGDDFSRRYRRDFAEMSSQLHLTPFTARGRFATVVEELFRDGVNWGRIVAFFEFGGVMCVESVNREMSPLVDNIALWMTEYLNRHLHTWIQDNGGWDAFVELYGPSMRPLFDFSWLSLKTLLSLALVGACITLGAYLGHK
Mcl-1, sequence (Q07820 whole entry): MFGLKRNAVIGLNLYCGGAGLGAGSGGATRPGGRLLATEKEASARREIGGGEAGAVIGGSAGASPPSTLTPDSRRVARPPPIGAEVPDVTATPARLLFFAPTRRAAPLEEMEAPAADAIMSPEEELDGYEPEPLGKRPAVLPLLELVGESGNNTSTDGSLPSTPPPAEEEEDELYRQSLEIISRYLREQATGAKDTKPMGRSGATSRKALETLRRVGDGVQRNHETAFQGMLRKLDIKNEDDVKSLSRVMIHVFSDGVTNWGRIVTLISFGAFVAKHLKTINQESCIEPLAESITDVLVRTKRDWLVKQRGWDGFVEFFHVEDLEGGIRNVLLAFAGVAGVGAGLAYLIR

`CN(C)CC[C@H](CSc1ccccc1)Nc1ccc(S(=O)(=O)NC(=O)c2ccc(N3CCN(Cc4ccccc4-c4ccc(Cl)cc4)CC3)cc2)cc1[N+](=O)[O-]` [Compound 1, reference compound]: the “Concentration with a similar effect (>50% of H146 cells undergoing cell death)” value with H146 cell line was 30 to 100 nM. In addition, the “Antitumor activity in xenograft tumor models” value in [1] is “efficiently induce tumor regression”.

As to `CC1(C)CCC(c2ccc(Cl)cc2)=C(CN2CCN(c3ccc(C(=O)NS(=O)(=O)c4ccc(N[C@H](CCN5CCOCC5)CSc5ccccc5)c(S(=O)(=O)C(F)(F)F)c4)cc3)CC2)C1` [Compound 2], in the data set on H146 cell line, the “Concentration with a similar effect (>50% of H146 cells undergoing cell death)” value was 30 to 100 nM. The “Concentration inducing clear cleavage of PARP and activation of caspase-3” value (“Concentration inducing clear cleavage” for short) in the data set with H146 cancer cells is 30 nM. Moreover, the “Antitumor activity in xenograft tumor models” value in data set [1] is on record as “efficiently induce tumor regression”. In [2], the “Antitumor activity in patients in chronic lymphocytic leukemia” value was “evidence of promising antitumor activity”. The “Single-agent activity in patients with small cell lung cancer” value in the data set with small cell lung cancer is recorded as “very limited single-agent activity”.

As for `CCn1c(C)c(C(=O)O)c(-c2cccc(N3CCN(c4ccc(NS(=O)(=O)c5ccc(N[C@H](CCN(C)C)CSc6ccccc6)c([N+](=O)[O-])c5)cc4)CC3)c2)c1-c1ccc(Cl)cc1` [Compound 3], the “Antitumor activity in H146 xenograft model” value in data set [3] is “fails to achieve durable tumor regression”. Besides, the inhibitory constant (Ki) on Bcl-2 [4] and at Bcl-xL [5] was under 1 nM throughout. Also, the “Binding to Mcl-1” value at Mcl-1 is “no appreciable binding”.

`Cc1c(C(=O)O)c(-c2cccc(N3CCN(c4ccc(NS(=O)(=O)c5ccc(N[C@H](CCN6CCC(O)CC6)CSc6ccccc6)c(S(=O)(=O)C(F)(F)F)c5)cc4)CC3)c2)c(-c2ccc(Cl)cc2)n1C` [Compound 28, (R)-5-(4-Chlorophenyl)-4-(3-(4-(4-(4-(4-(4-hydroxypiperidin-1-yl)-1-(phenylthio)butan-2-ylamino)-3-(trifluoromethylsulfonyl)phenylsulfonamido)phenyl)piperazin-1-yl)phenyl)-1,2-dimethyl-1H-pyrrole-3-carboxylic Acid]: the “Potency in induction of cell death relative to 1 and 2” value with H146 cell line was “somewhat less potent than 1 and 2”. The “Concentration inducing clear cleavage” value in the data set on H146 cancer cells is 100 nM. The “Cleavage of PARP and caspase-3 in H146 tumor tissues” value in the data set on H146 xenograft tumors is “robust cleavage of PARP and caspase-3”. Further, in data set [6], the “Antitumor activity in H146 xenograft tumor model” value was “effective in inhibition of tumor growth; also recorded: effectively inhibits tumor growth, it fails to induce tumor regression” and the “Weight loss in tumor-bearing animals compared to the vehicle control” value is reported as “less than 10%”. In addition, the “Weight loss at higher doses” value in data set [7] is given as “more than 10%”. For the same molecule, the Ki on Bcl-xL [8] was under 1 nM.

`CCn1c(C)c(C(=O)O)c(-c2cccc(N3CCN(c4ccc(NS(=O)(=O)c5ccc(N[C@H](CCN6CCC(O)CC6)CSc6ccccc6)c(S(=O)(=O)C(F)(F)F)c5)cc4)CC3)c2)c1-c1ccc(Cl)cc1` [Compound 30, (R)-5-(4-Chlorophenyl)-1-ethyl-4-(3-(4-(4-(4-(4-(4-hydroxypiperidin-1-yl)-1-(phenylthio)butan-2-ylamino)-3-(trifluoromethylsulfonyl)phenylsulfonamido)phenyl)piperazin-1-yl)phenyl)-2-methyl-1H-pyrrole-3-carboxylic Acid]: the “Potency in induction of cell death relative to 1 and 2” value in the data set on H146 cell line was “several times more potent than 1 and 2”. Besides, the “Concentration inducing clear cleavage” value in the data set with H146 cancer cells turned out to be 10 nM. The “Cleavage of PARP and caspase-3 in H146 tumor tissues” value with H146 xenograft tumors was “robust cleavage of PARP and caspase-3”. Further, in data set [6], the “Antitumor activity in H146 xenograft tumor model” value is “rapid, complete and durable tumor regression”; the “Weight loss in tumor-bearing animals compared to the vehicle control” value is “less than 10%”. The “Tumor-free mice at day 47 (15 days post-treatment)” value in [6] (30 at 25 mg/kg i.v., 7 mice treated) was “all mice were tumor-free”. Moreover, the “Weight loss at higher doses” value in data set [7] was “more than 10%”. On Bcl-2 [9], this molecule registered a Ki of under 1 nM. For the same molecule, the Ki on Bcl-xL [8] was under 1 nM.

Take `Cc1c(C(=O)O)c(-c2cccc(N3CCN(c4ccc(NS(=O)(=O)c5ccc(N[C@H](CCN6CCC(O)CC6)CSc6ccccc6)c(S(=O)(=O)C(F)(F)F)c5)cc4)CC3)c2)c(-c2ccc(Cl)cc2)n1C(C)C` [Compound 31, (R)-5-(4-Chlorophenyl)-4-(3-(4-(4-(4-(4-(4-hydroxypiperidin-1-yl)-1-(phenylthio)butan-2-ylamino)-3-(trifluoromethylsulfonyl)phenylsulfonamido)phenyl)piperazin-1-yl)phenyl)-1-isopropyl-2-methyl-1H-pyrrole-3-carboxylic Acid]: in the data set with H146 cell line, the “Potency in induction of cell death relative to 1 and 2” value was “several times more potent than 1 and 2”. Moreover, the “Weight loss at higher doses” value in [7] is “more than 10%”. On Bcl-xL [8], this molecule showed a Ki of under 1 nM.

In the case of `CCCCn1c(C)c(C(=O)O)c(-c2cccc(N3CCN(c4ccc(NS(=O)(=O)c5ccc(N[C@H](CCN6CCC(O)CC6)CSc6ccccc6)c(S(=O)(=O)C(F)(F)F)c5)cc4)CC3)c2)c1-c1ccc(Cl)cc1` [Compound 33, (R)-1-Butyl-5-(4-chlorophenyl)-4-(3-(4-(4-(4-(4-(4-hydroxypiperidin-1-yl)-1-(phenylthio)butan-2-ylamino)-3-(trifluoromethylsulfonyl)phenylsulfonamido)phenyl)piperazin-1-yl)phenyl)-2-methyl-1H-pyrrole-3-carboxylic acid], the “Times less potent than 30 and 31 in inhibition of cell growth, H1417” value in data set [10] is over 10 times. Also, the “Times less potent than 30 and 31 in inhibition of cell growth, H146” value in data set [11] was over 10 times. In addition, the Ki on Bcl-xL [8] was under 1 nM.
